Results published in patent US12075697B2, “Inert solution-processable molecular chromophores for organic electronic devices” (The Regents of the University of California, priority 2012, dated 2024).

Columns and labels:
Format in all cases: physicochemical
[1] = UV-visible absorption spectroscopy; details: for optical band gap: from λonset
Protocol: (§1) Optical properties were investigated using UV-visible absorption spectroscopy. […] Solution cyclic voltammetry measurements indicated the highest occupied molecular orbital (HOMO) and lowest unoccupied molecular orbital (LUMO) were −5.12 and −3.34 eV, respectively, and line up appropriately with the frontier molecular orbitals of common fullerene acceptors.
UV-vis: UV-visible spectroscopy were recorded using either a Beckman Coulter DU 800 series or Perkin Elmer Lambda 750 spectrophotometer at room temperature unless otherwise noted. All solution UV-vis experiments were run in CHCl3. Films were prepared by spin-coating CHCl3 or chlorobenzene solutions onto glass substrates. Films were annealed directly on a hot plate for 2 minutes.

[2] = Acid sensitivity: solution absorption profile as function of trifluoroacetic acid concentration; details: trifluoroacetic acid in chloroform, up to ten equivalents
From the text: To probe acid sensitivity, the solution absorption profiles of p-DTS(FBTTh2)2 (see Scheme 1, above) and d-DTS(PTTh2)2
[drawing 71] a pyridine-containing analog, were monitored as function of concentration of trifluoroacetic acid.

[3] = Solution cyclic voltammetry (HOMO/LUMO levels)
Protocol: as §1
Electrochemistry: All electrochemical measurements were performed using CHI instrument model 730B in a standard three-electrode, one compartment configuration equipped with Ag/AgCl electrode, Pt wire and Glassy carbon electrode (dia. 3 mm), as the pseudo reference, counter electrode and working electrode respectively. Glassy carbon electrodes were polished with alumina. The cyclic voltammetry (CV) experiments were performed in anhydrous dichloromethane solution with ˜0.1 M tetrabutylammonium hexafluorophosphate (TBAPF6) as the supporting electrolyte at scan rate 50 mV/s unless otherwise stated. All electrochemical solutions were purged with dry Ar for 15 minutes to deoxygenate the system. Solution CV measurements were carried out with a small molecule concentration of ˜1 mg/mL in CH2Cl2. Ferrocene was used as an internal standard. The HOMO and LUMO levels were obtained by correlating the onsets (Eox^Fc/Fc+, Erd^Fc/Fc+) to the normal hydrogen electrode (NHE), assuming HOMO of Fc/Fc^+ to be 4.88 eV.

Molecule `CCCCCCc1ccc(-c2ccc(-c3cc(F)c(-c4cc5c(s4)-c4sc(-c6c(F)cc(-c7ccc(-c8ccc(CCCCCC)s8)s7)c7nsnc67)cc4[Si]5(CC(CC)CCCC)CC(CC)CCCC)c4nsnc34)s2)s1` (stereo not drawn) [p-DTS(FBTTh2)2, 7,7′-(4,4-bis(2-ethylhexyl)-4H-silolo[3,2-b:4,5-b′]dithiophene-2,6-diyl)bis(6-fluoro-4-(5′-hexyl-[2,2′-bithiophen]-5-yl)benzo[c][1,2,5]thiadiazole)] has a λmax ([1]; solid state (thin film)) of 678 nm, a λonset ([1]; solid state (thin film)) of 800 nm and an optical band gap ([1]; solid state) of 1.55 eV. It also gave a λmax ([1]; solution (chloroform)) of 590 nm, a λonset ([1]; solution (chloroform)) of 670 nm and an optical band gap ([1]; solution (chloroform)) of 1.85 eV. The “change of absorption spectrum on addition of acid” value [2] was “remains effectively unchanged”, the “highest occupied molecular orbital (HOMO)” value [3] was −5.12 eV and the “lowest unoccupied molecular orbital (LUMO)” value [3] was −3.34 eV.
